What was measured:
[1] = biological target: Matrix metalloproteinase-9 (Mus musculus, UniProt P41245); experiment: Inhibitory concentration required against matrix metalloprotease-9 (MMP-9 gelatinase B)
[2] = biological target: 72 kDa type IV collagenase (Mus musculus, UniProt P33434); experiment: (§1) Inhibition of matrix metalloprotease-2
Stromelysin-1 = Stromelysin-1 (Homo sapiens, UniProt P08254); experiment: Inhibition of matrix metalloprotease-3
Collagenase 3 = Collagenase 3 (Homo sapiens, UniProt P45452); experiment: Inhibition of matrix metalloprotease-13
[3] = biological target: 72 kDa type IV collagenase (Homo sapiens, UniProt P08253); experiment: as §1
Sequence of 72 kDa type IV collagenase (Homo sapiens, UniProt P08253) (P08253 whole entry): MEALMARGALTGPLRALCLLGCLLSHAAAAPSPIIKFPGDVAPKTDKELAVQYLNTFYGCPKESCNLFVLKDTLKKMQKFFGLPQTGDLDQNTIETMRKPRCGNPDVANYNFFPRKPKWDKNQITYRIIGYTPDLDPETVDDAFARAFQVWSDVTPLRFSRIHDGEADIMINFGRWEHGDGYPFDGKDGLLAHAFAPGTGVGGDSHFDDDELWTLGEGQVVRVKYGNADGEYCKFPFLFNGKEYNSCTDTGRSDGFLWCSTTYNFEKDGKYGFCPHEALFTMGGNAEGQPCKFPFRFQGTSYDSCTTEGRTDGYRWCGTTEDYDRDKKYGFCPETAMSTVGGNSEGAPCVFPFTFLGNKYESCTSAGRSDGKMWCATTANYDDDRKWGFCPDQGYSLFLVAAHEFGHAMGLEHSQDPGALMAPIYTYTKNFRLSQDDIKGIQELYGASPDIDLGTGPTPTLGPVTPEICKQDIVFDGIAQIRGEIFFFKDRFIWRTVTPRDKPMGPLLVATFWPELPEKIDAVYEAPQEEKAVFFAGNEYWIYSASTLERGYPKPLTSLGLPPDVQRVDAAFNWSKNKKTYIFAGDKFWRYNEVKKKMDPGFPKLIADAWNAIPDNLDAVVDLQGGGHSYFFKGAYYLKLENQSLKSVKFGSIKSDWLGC

[4] = biological target: Matrix metalloproteinase-9 (Homo sapiens, UniProt P14780); experiment: Inhibition of matrix metalloprotease-9
Sequence of Matrix metalloproteinase-9 (Homo sapiens, UniProt P14780) (P14780 whole entry): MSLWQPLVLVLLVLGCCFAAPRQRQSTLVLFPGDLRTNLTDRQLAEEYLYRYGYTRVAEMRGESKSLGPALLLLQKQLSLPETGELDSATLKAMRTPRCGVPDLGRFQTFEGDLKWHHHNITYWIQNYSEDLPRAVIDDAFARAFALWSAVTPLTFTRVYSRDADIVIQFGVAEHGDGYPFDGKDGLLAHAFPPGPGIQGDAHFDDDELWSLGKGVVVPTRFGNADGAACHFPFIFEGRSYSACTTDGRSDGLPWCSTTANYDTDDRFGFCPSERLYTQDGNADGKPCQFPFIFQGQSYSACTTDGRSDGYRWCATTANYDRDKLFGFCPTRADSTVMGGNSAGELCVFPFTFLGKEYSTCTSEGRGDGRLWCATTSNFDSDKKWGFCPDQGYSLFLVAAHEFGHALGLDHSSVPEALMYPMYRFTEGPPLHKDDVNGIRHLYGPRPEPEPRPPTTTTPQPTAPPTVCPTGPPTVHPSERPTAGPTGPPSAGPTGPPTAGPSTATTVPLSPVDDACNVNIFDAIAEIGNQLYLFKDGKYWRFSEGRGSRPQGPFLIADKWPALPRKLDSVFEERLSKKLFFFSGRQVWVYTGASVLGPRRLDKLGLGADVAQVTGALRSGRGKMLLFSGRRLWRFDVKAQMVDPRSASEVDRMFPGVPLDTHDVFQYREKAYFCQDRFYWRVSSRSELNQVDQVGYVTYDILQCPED

Interstitial collagenase = biological target: T1, Interstitial collagenase (Homo sapiens, UniProt P03956); experiment: Inhibition of matrix metalloprotease-1
T1 sequence (P03956 whole entry): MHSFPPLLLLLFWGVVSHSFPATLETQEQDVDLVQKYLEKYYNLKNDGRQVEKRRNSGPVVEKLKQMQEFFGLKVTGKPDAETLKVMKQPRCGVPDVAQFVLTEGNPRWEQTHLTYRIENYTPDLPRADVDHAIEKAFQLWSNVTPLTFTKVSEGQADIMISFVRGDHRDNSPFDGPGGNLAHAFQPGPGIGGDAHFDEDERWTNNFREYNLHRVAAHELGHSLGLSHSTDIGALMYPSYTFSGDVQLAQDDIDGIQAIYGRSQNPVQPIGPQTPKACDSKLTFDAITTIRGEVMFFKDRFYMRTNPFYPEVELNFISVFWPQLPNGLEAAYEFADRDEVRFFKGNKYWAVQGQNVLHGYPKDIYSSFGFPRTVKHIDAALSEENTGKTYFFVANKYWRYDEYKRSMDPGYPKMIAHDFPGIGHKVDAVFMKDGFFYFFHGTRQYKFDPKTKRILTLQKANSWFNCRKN

Sequence of Stromelysin-1 (P08254 whole entry): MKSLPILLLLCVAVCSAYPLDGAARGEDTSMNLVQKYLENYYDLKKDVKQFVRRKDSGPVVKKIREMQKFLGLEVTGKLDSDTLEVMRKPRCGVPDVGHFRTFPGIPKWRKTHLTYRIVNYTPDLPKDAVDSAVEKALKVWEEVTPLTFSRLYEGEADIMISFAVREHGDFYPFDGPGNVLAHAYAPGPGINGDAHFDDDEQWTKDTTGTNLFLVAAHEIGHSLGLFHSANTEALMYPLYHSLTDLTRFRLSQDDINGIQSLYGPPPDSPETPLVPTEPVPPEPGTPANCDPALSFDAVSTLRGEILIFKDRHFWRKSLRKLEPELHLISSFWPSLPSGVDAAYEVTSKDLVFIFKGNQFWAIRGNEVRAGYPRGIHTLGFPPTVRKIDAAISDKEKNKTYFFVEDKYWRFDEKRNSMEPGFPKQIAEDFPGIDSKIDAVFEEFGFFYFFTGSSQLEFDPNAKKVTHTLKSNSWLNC
Sequence of 72 kDa type IV collagenase (Mus musculus, UniProt P33434) (P33434 whole entry): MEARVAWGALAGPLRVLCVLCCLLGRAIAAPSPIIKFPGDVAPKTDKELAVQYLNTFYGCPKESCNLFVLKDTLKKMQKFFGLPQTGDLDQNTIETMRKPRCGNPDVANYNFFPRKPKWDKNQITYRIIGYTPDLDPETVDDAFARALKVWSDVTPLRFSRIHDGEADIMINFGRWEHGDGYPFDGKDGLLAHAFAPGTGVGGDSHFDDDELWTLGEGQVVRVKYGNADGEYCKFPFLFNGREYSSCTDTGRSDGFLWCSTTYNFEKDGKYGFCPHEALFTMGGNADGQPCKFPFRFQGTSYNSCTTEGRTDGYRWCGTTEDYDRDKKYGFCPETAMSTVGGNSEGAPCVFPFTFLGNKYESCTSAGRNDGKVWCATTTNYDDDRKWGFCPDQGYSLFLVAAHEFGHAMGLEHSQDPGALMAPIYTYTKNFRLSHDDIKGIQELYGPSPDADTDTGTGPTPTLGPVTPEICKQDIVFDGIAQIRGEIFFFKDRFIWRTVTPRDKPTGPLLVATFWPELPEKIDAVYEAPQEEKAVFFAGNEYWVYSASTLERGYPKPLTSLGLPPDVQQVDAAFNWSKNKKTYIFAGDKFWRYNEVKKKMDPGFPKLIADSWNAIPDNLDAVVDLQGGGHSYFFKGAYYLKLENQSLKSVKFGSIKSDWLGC
Sequence of Matrix metalloproteinase-9 (Mus musculus, UniProt P41245) (P41245 whole entry): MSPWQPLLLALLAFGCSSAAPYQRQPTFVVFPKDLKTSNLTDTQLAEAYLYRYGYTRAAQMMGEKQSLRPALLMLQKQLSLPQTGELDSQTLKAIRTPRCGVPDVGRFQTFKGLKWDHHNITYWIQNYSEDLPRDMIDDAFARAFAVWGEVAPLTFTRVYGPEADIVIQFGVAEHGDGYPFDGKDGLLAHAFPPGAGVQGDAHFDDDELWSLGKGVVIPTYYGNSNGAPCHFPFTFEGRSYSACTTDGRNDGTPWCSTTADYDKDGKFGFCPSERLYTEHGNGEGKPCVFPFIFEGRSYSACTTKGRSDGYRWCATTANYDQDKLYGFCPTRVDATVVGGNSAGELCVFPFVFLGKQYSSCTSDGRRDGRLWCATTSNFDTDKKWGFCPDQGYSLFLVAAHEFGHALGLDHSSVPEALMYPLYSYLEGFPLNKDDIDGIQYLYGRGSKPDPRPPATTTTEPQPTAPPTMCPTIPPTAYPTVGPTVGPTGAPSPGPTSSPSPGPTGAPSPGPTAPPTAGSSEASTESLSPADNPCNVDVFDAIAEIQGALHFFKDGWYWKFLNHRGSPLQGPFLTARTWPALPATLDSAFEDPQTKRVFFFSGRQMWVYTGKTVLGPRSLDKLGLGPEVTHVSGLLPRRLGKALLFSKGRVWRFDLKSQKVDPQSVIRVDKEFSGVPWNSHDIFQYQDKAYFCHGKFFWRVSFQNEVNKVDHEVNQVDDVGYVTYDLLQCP

SMILES	IC50 [1] [nM]	IC50 [2] [nM]	IC50 (Stromelysin-1) [nM]	IC50 (Collagenase 3) [nM]	IC50 [3] [nM]	IC50 [4] [nM]	IC50 (Interstitial collagenase) [nM]
COc1ccc(S(=O)(=O)N(CC(=O)NC(c2ccccc2)c2ccccc2)[C@H](CCSCc2ccccc2)C(=O)NO)cc1	0.5	2.3	3.7	4.5			
CC(C)CN([C@@H](CCSCc1ccccc1)C(=O)NO)S(=O)(=O)c1ccc(-c2ccccc2)cc1	2.5	4.1	90	3.8			
CSCC[C@@H](C(=O)NO)N(CC(C)C)S(=O)(=O)c1ccc(-c2ccccc2)cc1			37	3	0.7	0.2	156
COc1ccc(S(=O)(=O)N(CC(C)C)[C@@H](CCSCc2ccc(-c3ccccc3)cc2)C(=O)NO)cc1			20		30	0.2	
COc1ccc(S(=O)(=O)N(Cc2cccnc2)[C@@H](C(=O)NO)C(C)C)cc1 [CGS-27023A]	10	15					
COc1ccc(S(=O)(=O)N(CC(C)C)[C@@H](CCSCc2ccc(OCc3ccccc3)cc2)C(=O)NO)cc1			29			8	
CC[C@@H](C(=O)NO)N(CC(C)C)S(=O)(=O)c1ccc(OC)cc1			45	96	53	7	384
COc1ccc(S(=O)(=O)N(CC(C)C)[C@@H](CCSCc2ccccc2)C(=O)NO)cc1			0.7	12	0.7	2.5	104

— ChEMBL document CHEMBL1132530, “Picking the S1, S1' and S2' pockets of matrix metalloproteinases. A niche for potent acyclic sulfonamide inhibitors” (Bioorg Med Chem Lett, 1999)
